Results as given in US20260297060A1, “COMPOUNDS FOR THE DEGRADATION OF MUTANT BRAF” (C4 THERAPEUTICS, INC., priority 2023, published 2026).
Read-outs that look alike come from different tables or passages of the source.

Experiments:
[1] = Example 6 pharmacokinetics assay for PKPD study (plasma, tumor, liver); type: in vivo, BALB/c nude mice; settings: 10 mg/kg, single dose; for concentration at 6 h / concentration at 12 h / concentration at 1 h / concentration at 24 h: mouse, po
Procedure: For the pharmacokinetic/pharmacodynamic (PKPD) study, compounds were tested in the A375 human melanoma xenografts. Known BRAF inhibitors encorafenib, and dabrafenib were used as positive controls. Encorafenib, dabrafenib, Compound 83, Compound 93, Compound 70, and Compound 54 were administered to BALB/c nude mice bearing A375 tumors on PG-D1 and dosed orally (PO) once. Encorafenib was dosed at 35 mg/kg. Dabrafenib was dosed at 100 mg/kg. Compound 83, Compound 93, Compound 70, and Compound 54 were dosed at 10 mg/kg. The plasma and tumor samples were collected at 1, 6, 12 and 24 hours, and liver samples were collected at 6 hours and 12 hours post the single dose. This study was non-GLP study.
The plasma samples were collected at predetermined time points for PK analysis. The mice were euthanized at predetermined time points post the treatment. The blood samples were collected into the 1.5 mL Eppendorf tubes containing 15 μL of 0.5 M EDTA-K2. And then the anticoagulant blood samples were centrifuged at 2,500 g at 4° C. for 15 minutes. The plasma samples were separated into 2 aliquots. The 1st was used for PK analysis, and the 2nd served as backup. The samples were stored at −80° C. before bioanalysis.
The tumor samples were collected at predetermined time points for PK and WB analysis (B-RAF and p-ERK). The tumor was dissected out and split into 3 parts. The 1st part was used for PK analysis, the 2nd part was used for WB analysis and the last one served as backup for study. The samples were transferred into pre-labeled tubes and quickly froze in liquid nitrogen within 2 minutes after dissection. The samples were stored at −80° C. before bioanalysis.
Liver samples were collected at predetermined time points for PK analysis. The left lobe of the liver was dissected out and split into 2 parts. The 1st part was used for PK analysis and the 2nd part served as the backup for the study. The samples were transferred into pre-labeled tubes and quickly froze in liquid nitrogen within 2 minutes after dissection. The samples were stored at −80° C. before bioanalysis.
For PKPD study, the harvested plasma, tumor and liver were processed for pharmacokinetics analysis by LC/MS/MS with a concentration range of 0.5-1000 ng/mL for Encorafenib and Dabrafenib in plasma, 0.05-100 ng/mL for Encorafenib and Dabrafenib in tumor, 0.2-200 ng/mL for Encorafenib and Dabrafenib in liver, 2.0-2000 ng/mL for compound 93, compound 83, compound 54 and compound 70 in liver, 50.0-50000 ng/mL for compound 83 and compound 70 in plasma, 0.5-1000 ng/mL for compound 83 and compound 70 in tumor, 1.0-2000 ng/mL for compound 93 in plasma, 10.0-20000 ng/mL for compound 54 in plasma, 0.5-500 ng/mL for compound 93 and compound 54 in tumor.

[2] = system: A375 human melanoma xenografts; assay: Example 7 efficacy study in A375 human melanoma xenografts (tumor volume, T/C, TGI); type: in vivo, BALB/c nude mice; settings: 10 mg/kg, p.o., BID × 14 days; for T/C / TGI / Tumor Size on PG-D14 (mean ± SEM): PG-D14
Procedure: For efficacy study, agents were tested in the A375 human melanoma xenografts. Compound 118, Compound 156, and Compound 180 were administered to BALB/c nude mice bearing A375 xenografts from day 0 and dosed p.o. twice per day (BID). Compound 141 was administered from day 0 and dosed p.o. twice per day (BID) or dosed p.o. daily (QD) from day 1. Compound 141, Compound 118, Compound 156, and Compound 180 were dosed at 10 mg/kg for 14 days. The known BRAF inhibitor Dabrafenib was used as a positive control. Dabrafenib was administered from day 1 and dosed p.o. daily (QD) for 14 days and dosed at 100 mg/kg.
The A375 tumor cells were maintained in vitro in DMEM medium supplemented with […] and 1% Penicillin-Streptomycin at 37° C. in an atmosphere of 5% CO2 in air. The tumor cells were routinely subcultured twice weekly. The cells growing in an exponential growth phase were harvested and counted for tumor inoculation.
Each mouse was inoculated subcutaneously at the right flank with A375 tumor cells (5×10^6) in 0.2 mL of PBS with Matrigel (PBS: Matrigel=1:1) supplemented for tumor development. Animals were grouped when the average tumor volume reached 246 mm^3 for efficacy study and 390 mm^3 for PKPD study on day 17 after tumor inoculation. The test articles administration and the animal numbers in each group are shown in the above experimental tables.
Prior to the onset of drug treatment, mice were measured for tumor size in two dimensions using a caliper, and the tumor volume (mm^3) was calculated using formula V=0.5 a×b^2 where a and b are the long and short diameters of the tumor in mm, respectively. Mice were randomized into different treatment groups based on the tumor volume.
The major endpoint was to see if the tumor growth could be delayed or mice could be cured. The tumor size was then used for calculations of T/C value. The T/C value (in percent) is an indication of antitumor effectiveness; T and C are the mean volumes of the treated and control groups, respectively on specified day.
TGI was calculated for each group using the formula: TGI (%)=[1−(Ti−T0)/(Ci−C0)]×100; Ti is the average tumor volume of a treatment group on a given day, T0 is the average tumor volume of the treatment group on the day of treatment start, Ci is the average tumor volume of the vehicle control group on the same day with Ti, and C0 is the average tumor volume of the vehicle group on the day of treatment start.

[3] = liver, 6 h, read-out: Concentration in Liver (mean ± SEM)
[4] = liver, 12 h, read-out: Concentration in Liver (mean ± SEM)
[5] = plasma, 1 h, read-out: Concentration in Plasma (mean ± SEM)
[6] = plasma, 6 h, read-out: Concentration in Plasma (mean ± SEM)
[7] = plasma, 12 h, read-out: Concentration in Plasma (mean ± SEM)
[8] = plasma, 24 h, read-out: Concentration in Plasma (mean ± SEM)
[9] = tumor, 1 h, read-out: Concentration in Tumor (mean ± SEM)
[10] = tumor, 6 h, read-out: Concentration in Tumor (mean ± SEM)
[11] = tumor, 12 h, read-out: Concentration in Tumor (mean ± SEM)
[12] = tumor, 24 h, read-out: Concentration in Tumor (mean ± SEM)

concentration at 6 h [1, 3] [ng/g]	concentration at 12 h [1, 4] [ng/g]	concentration at 1 h [1, 5] [ng/mL]	concentration at 6 h [1, 6] [ng/mL]	concentration at 12 h [1, 7] [ng/mL]	concentration at 24 h [1, 8] [ng/mL]	concentration at 1 h [1, 9] [ng/g]	concentration at 6 h [1, 10] [ng/g]	concentration at 12 h [1, 11] [ng/g]	concentration at 24 h [1, 12] [ng/g]	SMILES	T/C [2] [%]	TGI [2] [%]	Tumor Size on PG-D14 (mean ± SEM) [2] [mm^3]	Tumor Volume (mean ± SEM) ([2]; day 0) [mm^3]	Tumor Volume (mean ± SEM) ([2]; day 3) [mm^3]	Tumor Volume (mean ± SEM) ([2]; day 7) [mm^3]	Tumor Volume (mean ± SEM) ([2]; day 10) [mm^3]	Tumor Volume (mean ± SEM) ([2]; day 14) [mm^3]	other results
4470 ± 501	650 ± 84.2	7740 ± 1180	3410 ± 703	605 ± 124	54 ± 9.5	513 ± 28.8	931 ± 147	477 ± 125	29.8 ± 2.9	CCN(C)S(=O)(=O)Nc1ccc(F)c(Oc2ccc3ncc([C@@H]4COC5(CCN(C6CCC(c7cc8c(cc7F)c(N7CCC(=O)NC7=O)nn8C)CC6)CC5)C4)nc3c2)c1C#N (single isomer, unassigned) [Compound 54]									
										CCN(C)S(=O)(=O)Nc1ccc(F)c(Oc2ccc3ncn([C@H]4COC5(CCN(C6CC(c7cc8c(cc7F)c(N7CCC(=O)NC7=O)nn8C)C6)CC5)C4)c(=O)c3c2)c1C#N (single isomer, unassigned) [Compound 70]									Concentration in Plasma (mean ± SEM) ([1]; 1 h): 15100 ± 3559 ng/mL; Concentration in Tumor (mean ± SEM) ([1]; 1 h): 816 ± 239 ng/g; Concentration in Liver (mean ± SEM) ([1]; 6 h): 4363 ± 1423 ng/g; Concentration in Plasma (mean ± SEM) ([1]; 6 h): 8563 ± 2312 ng/mL; Concentration in Tumor (mean ± SEM) ([1]; 6 h): 1529 ± 458 ng/g; Concentration in Liver (mean ± SEM) ([1]; 12 h): 921 ± 317 ng/g; Concentration in Plasma (mean ± SEM) ([1]; 12 h): 2105 ± 800 ng/mL; Concentration in Tumor (mean ± SEM) ([1]; 12 h): 564 ± 206 ng/g; Concentration in Plasma (mean ± SEM) ([1]; 24 h): 106 ± 10.8 ng/mL; Concentration in Tumor (mean ± SEM) ([1]; 24 h): 21.9 ± 4.93 ng/g
6990 ± 166	1580 ± 273	20100 ± 1510	10400 ± 338	2420 ± 572	172	1650 ± 249	1820 ± 354	751 ± 128	57.6 ± 37	CCN(C)S(=O)(=O)Nc1ccc(F)c(Oc2ccc3ncn(C4CC5(CCN(C6CCC(c7cc8c(cc7F)c(N7CCC(=O)NC7=O)nn8C)CC6F)CC5)C4)c(=O)c3c2)c1C#N (single isomer, unassigned) [Compound 83, 6-[2-cyano-3-[[ethyl(methyl)sulfamoyl]amino]-6-fluoro-phenoxy]-3-[7-[4-[3-(2,4-dioxohexahydropyrimidin-1-yl)-5-fluoro-1-methyl-indazol-6-yl]-2-fluoro-cyclohexyl]-7-azaspiro[3.5]nonan-2-yl]-4-oxo-quinazoline]									
460 ± 32.7	117 ± 30.2	2450 ± 799	548 ± 28.3	114 ± 25.6	2.85 ± 0.408	232 ± 75.6	129 ± 13.6	50.6 ± 14.1	59.5	Cn1nc(N2CCC(=O)NC2=O)c2cc(F)c(C3CCC(N4CCC5(CC4)CC(n4cnc6ccc(Oc7c(F)ccc(NS(=O)(=O)C8CCCC8)c7C#N)cc6c4=O)C5)CC3)cc21 (single isomer, unassigned) [Compound 93, N-[2-cyano-3-[3-[7-[4-[3-(2,4-dioxohexahydropyrimidin-1-yl)-5-fluoro-1-methyl-indazol-6-yl]cyclohexyl]-7-azaspiro[3.5]nonan-2-yl]-4-oxo-quinazolin-6-yl]oxy-4-fluoro-phenyl]cyclopentanesulfonamide]									
										CCN(C)S(=O)(=O)Nc1ccc(F)c(Oc2ccc3ncc(OCC4CCN(C5CCC(c6cc7c(cc6F)c(N6CCC(=O)NC6=O)nn7C)CC5)CC4)nc3c2)c1C#N (single isomer, unassigned) [Compound 118, 7-[2-cyano-3-[[ethyl(methyl)sulfamoyl]amino]-6-fluoro-phenoxy]-2-[[1-[4-[3-(2,4-dioxohexahydropyrimidin-1-yl)-5-fluoro-1-methyl-indazol-6-yl]cyclohexyl]-4-piperidyl]methoxy]quinoxaline]	6.1	115.3	81 ± 8	247 ± 14	326 ± 20	192 ± 20	117 ± 13	81 ± 8	
										CCN(C)S(=O)(=O)Nc1ccc(F)c(Oc2ccc3ncc(C4CC5(CCN(C6CCC(c7cc8c(cc7F)c(N7CCC(=O)NC7=O)nn8C)CC6)CC5)C4)nc3c2)c1C#N (single isomer, unassigned) [Compound 180, 7-[2-cyano-3-[[ethyl(methyl)sulfamoyl]amino]-6-fluoro-phenoxy]-2-[7-[4-[3-(2,4-dioxohexahydropyrimidin-1-yl)-5-fluoro-1-methyl-indazol-6-yl]cyclohexyl]-7-azaspiro[3.5]nonan-2-yl]quinoxaline]	7.2	113.9	96 ± 11	247 ± 16	319 ± 22	222 ± 18	151 ± 16	96 ± 11	
